This is an account of results in patent US12679878B2, “CRF2 receptor agonists and their use in therapy” (SANOFI, priority 2020, dated 2026).

Assay [1] has as its target T1, human CRF2α receptor (Homo sapiens, UniProt Q13324).
T1 construct: expressed in transfected cells; host or cells: TeloHEAC
T1 sequence (Q13324 1-411): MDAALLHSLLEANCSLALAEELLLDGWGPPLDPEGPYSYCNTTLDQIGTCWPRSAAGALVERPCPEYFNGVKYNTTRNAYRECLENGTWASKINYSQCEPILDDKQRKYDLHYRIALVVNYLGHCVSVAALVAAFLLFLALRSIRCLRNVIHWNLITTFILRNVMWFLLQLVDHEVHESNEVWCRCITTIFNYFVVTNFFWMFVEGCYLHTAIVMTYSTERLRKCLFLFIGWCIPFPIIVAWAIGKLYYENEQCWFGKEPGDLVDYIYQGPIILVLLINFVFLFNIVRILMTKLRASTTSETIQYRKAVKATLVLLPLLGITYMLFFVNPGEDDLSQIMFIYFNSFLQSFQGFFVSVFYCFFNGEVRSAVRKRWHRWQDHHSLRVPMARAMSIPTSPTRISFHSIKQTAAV
Nature of the assay: cAMP agonism at human CRF2 α receptor in TeloHEAC cells (Example 7). Format: cell-based. The following applies: cAMP HTRF, TeloHEAC cells stably expressing human CRF2 α. Summed up: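 Cryopreserved cells are thawed, washed and resuspended in IBMX-containing (2 mM) HEPES-buffered HBSS with or without 0.1% HSA. Compound incubation runs 30 min at room temperature with 2000 cells per well, then cAMP is measured by time-resolved FRET. Potency is expressed as EC50, efficacy relative to urocortin 2 at 1000 nM.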
A general note: Time-resolved FRET reads energy transfer from a long-lived donor to a nearby acceptor.

The target of assay [2] is T2, CRF1R receptor (Homo sapiens, UniProt P34998).
T2 construct: host or cells: CHO-K1 clone 2
T2 sequence (P34998 24-415): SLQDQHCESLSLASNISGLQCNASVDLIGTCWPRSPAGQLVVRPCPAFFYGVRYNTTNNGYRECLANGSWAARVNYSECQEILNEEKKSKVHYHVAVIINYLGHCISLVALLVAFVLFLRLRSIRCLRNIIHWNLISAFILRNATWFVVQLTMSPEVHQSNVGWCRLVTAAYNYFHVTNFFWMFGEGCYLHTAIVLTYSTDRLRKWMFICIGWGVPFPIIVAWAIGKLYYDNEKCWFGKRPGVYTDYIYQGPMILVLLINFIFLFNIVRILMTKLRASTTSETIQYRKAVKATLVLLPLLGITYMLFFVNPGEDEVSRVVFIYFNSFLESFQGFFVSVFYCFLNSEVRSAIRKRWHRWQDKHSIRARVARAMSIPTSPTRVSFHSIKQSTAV
In words: cAMP activity at anti-target CRF1R, CHO-K1 cell line clone 2 (Example 19.10). Particulars: CRF1R CHO-K1 clone 2; for EC50: 0% HSA, read-out: EC50 [nM] 0% HSA; for Emax: 100% = Sauvagine at 100 nM. Format: cell-based. The method, then:
The CRF1R-overexpression CHO-K1 cell line clone 2 was purchased from PerkinElmer.
Cells were grown in a 10 cm dish at 37° C./5% CO2 in medium (F12 (Hams)/10% FBS/400 μg/ml G418) to near confluence. At that stage, cells were harvested, resuspended to 10 million/mL in culture medium without G418 and with 10% DMSO. 1 mL vial aliquots were slowly frozen to -80° C. in isopropanol and then transferred in liquid nitrogen for storage. These vials were used to run the experiment following the procedure reported 10 in the previous paragraph, except for the compound used in the control well to define the 100% activation (Sauvagine at 100 nM)

[3] abbreviates: 0% HSA, read-out: EC50 [nM], 0% HSA.

Where two headings read alike, the source gives them in different places. Starred links: 1 amine or outer side, 2 acyl side, 3 side chain; linkers in the order of their positions; H or OH if unused. Non-standard residues stand in square brackets, D forms with d. Residues, ends and D or L forms follow the SMILES beside them. Groups on a side chain read outwards from the residue. *: point of attachment. C18 diacid = O=C(O)CCCCCCCCCCCCCCCCC(=O)*; γGlu = O=C(O)[C@H](CCC(=O)[*:2])N[*:1]; Palmitoyl = CCCCCCCCCCCCCCCC(=O)*; AEEA = NCCOCCOCC(=O)O; Aib = CC(C)(N)C(=O)O

As a reminder, the EC50 is the concentration needed to bring the measured effect to its halfway point. Usually Emax stands for the greatest response seen or fitted, relative to the assay's reference. For the compound `CCCCCCCCCCCCCCCC(=O)N[C@@H](CCC(=O)NCCCC[C@H](NC(=O)[C@H](CC(C)C)NC(=O)[C@H](CCCCN)NC(=O)[C@@H](NC(=O)[C@@H]1CCCN1C(=O)[C@H](NC(=O)[C@H](CC(=O)O)NC(=O)[C@H](CC(C)C)NC(=O)[C@H](CO)NC(=O)[C@H](CC(C)C)NC(=O)[C@@H](NC(=O)[C@@H](N)[C@@H](C)CC)C(C)C)C(C)C)[C@@H](C)O)C(=O)N[C@@H](CCCCN)C(=O)N[C@@H](CCCCN)C(=O)N[C@@H](CC(C)C)C(=O)N[C@@H](CC(C)C)C(=O)N[C@@H](CCCCN)C(=O)N[C@@H](CCC(N)=O)C(=O)N[C@@H](CCC(=O)O)C(=O)N[C@@H](CCCNC(=N)N)C(=O)N[C@@H](CCCCN)C(=O)N[C@@H](CCCNC(=N)N)C(=O)N[C@@H](CCCCN)C(=O)N[C@@H](CCC(=O)O)C(=O)N[C@@H](CCCNC(=N)N)C(=O)N[C@@H](CCC(=O)O)C(=O)N[C@@H](CCC(N)=O)C(=O)N[C@@H](C)C(=O)N[C@@H](CCC(=O)O)C(=O)N[C@@H](CCCCN)C(=O)N[C@@H](CC(N)=O)C(=O)N[C@@H](C)C(=O)N[C@@H](CCCNC(=N)N)C(=O)N[C@H](C(=O)N[C@@H](CC(C)C)C(=O)N[C@@H](CCC(=O)O)C(=O)N[C@@H](CCCNC(=N)N)C(=O)N[C@H](C(N)=O)C(C)C)[C@@H](C)CC)C(=O)O` [compound 27] (H-IVLSLD[dV]PTKLK([γGlu-Palmitoyl])KKLLKQERKRKEREQAEKNARILERV-NH2; N-terminus assumed), the half-maximal effective concentration (EC50) in assay [1] (setting [3]) stood at 0.01 nM. In addition, in assay [2], the EC50 was more than 100 nM and the Emax worked out at 34.2%.

For the compound `CCCCCCCCCCCCCCCC(=O)N[C@@H](CCC(=O)NCCCC[C@H](NC(=O)[C@H](CC(C)C)NC(=O)[C@H](CCCCN)NC(=O)[C@@H](NC(=O)[C@@H]1CCCN1C(=O)[C@H](NC(=O)[C@H](CC(=O)O)NC(=O)[C@H](CC(C)C)NC(=O)[C@H](CO)NC(=O)[C@H](CC(C)C)NC(=O)[C@@H](NC(=O)[C@@H](N)[C@@H](C)CC)C(C)C)C(C)C)[C@@H](C)O)C(=O)N[C@@H](CCCCN)C(=O)N[C@@H](CCCCN)C(=O)N[C@@H](CC(C)C)C(=O)N[C@@H](CC(C)C)C(=O)N[C@@H](CCCCN)C(=O)N[C@@H](CCC(N)=O)C(=O)N[C@@H](CCC(=O)O)C(=O)N[C@@H](CCCNC(=N)N)C(=O)N[C@@H](CCCCN)C(=O)N[C@@H](CCCNC(=N)N)C(=O)N[C@@H](CCCCN)C(=O)N[C@@H](CCC(=O)O)C(=O)N[C@@H](CCCNC(=N)N)C(=O)N[C@@H](CCC(=O)O)C(=O)N[C@@H](CCCCN)C(=O)N[C@@H](C)C(=O)N[C@@H](CCC(=O)O)C(=O)N[C@@H](CCCCN)C(=O)N[C@@H](C)C(=O)N[C@@H](C)C(=O)N[C@@H](CCCNC(=N)N)C(=O)N[C@H](C(=O)N[C@@H](CC(C)C)C(=O)N[C@@H](CCC(=O)O)C(=O)N[C@@H](CCCNC(=N)N)C(=O)N[C@H](C(N)=O)C(C)C)[C@@H](C)CC)C(=O)O` [compound 28] (H-IVLSLD[dV]PTKLK([γGlu-Palmitoyl])KKLLKQERKRKEREKAEKAARILERV-NH2; N-terminus assumed), the EC50 in assay [1] (setting [3]) turned out to be 0.14 nM. In assay [2], the EC50 is more than 100 nM and the Emax is 8.4%.

Take `CCCCCCCCCCCCCCCC(=O)N[C@@H](CCC(=O)NCCCC[C@H](NC(=O)[C@H](CC(C)C)NC(=O)[C@H](CCCCN)NC(=O)[C@@H](NC(=O)[C@@H]1CCCN1C(=O)[C@H](NC(=O)[C@H](CC(=O)O)NC(=O)[C@H](CC(C)C)NC(=O)[C@H](CO)NC(=O)[C@H](CC(C)C)NC(=O)[C@@H](NC(=O)[C@@H](N)[C@@H](C)CC)C(C)C)C(C)C)[C@@H](C)O)C(=O)N[C@@H](CCCCN)C(=O)N[C@@H](CCCCN)C(=O)N[C@@H](CC(C)C)C(=O)N[C@@H](CC(C)C)C(=O)N[C@@H](CCCCN)C(=O)N[C@@H](CCC(N)=O)C(=O)N[C@@H](CCC(=O)O)C(=O)N[C@@H](CCCNC(=N)N)C(=O)N[C@@H](CCCCN)C(=O)N[C@@H](CCCNC(=N)N)C(=O)N[C@@H](CCCCN)C(=O)N[C@@H](CCC(=O)O)C(=O)N[C@@H](CCCNC(=N)N)C(=O)N[C@@H](CCC(=O)O)C(=O)NC(C)(C)C(=O)N[C@@H](C)C(=O)N[C@@H](CCC(=O)O)C(=O)N[C@@H](CCCCN)C(=O)N[C@@H](C)C(=O)N[C@@H](C)C(=O)N[C@@H](CCCNC(=N)N)C(=O)N[C@H](C(=O)N[C@@H](CC(C)C)C(=O)N[C@@H](CCC(=O)O)C(=O)N[C@@H](CCCNC(=N)N)C(=O)N[C@H](C(N)=O)C(C)C)[C@@H](C)CC)C(=O)O` [compound 29] (H-IVLSLD[dV]PTKLK([γGlu-Palmitoyl])KKLLKQERKRKERE[Aib]AEKAARILERV-NH2; N-terminus assumed): in assay [1] (setting [3]), the EC50 is 0.12 nM. Also, in assay [2], the EC50 is more than 100 nM and the Emax was 18.4%.

Turning to `CCCCCCCCCCCCCCCC(=O)N[C@@H](CCC(=O)NCCCC[C@H](NC(=O)[C@H](CC(C)C)NC(=O)[C@H](CCCCN)NC(=O)[C@@H](NC(=O)[C@@H]1CCCN1C(=O)[C@H](NC(=O)[C@H](CC(=O)O)NC(=O)[C@H](CC(C)C)NC(=O)[C@H](CO)NC(=O)[C@H](CC(C)C)NC(=O)[C@@H](NC(=O)[C@@H](N)[C@@H](C)CC)C(C)C)C(C)C)[C@@H](C)O)C(=O)N[C@@H](CCCCN)C(=O)N[C@@H](CCCCN)C(=O)N[C@@H](CC(C)C)C(=O)N[C@@H](CC(C)C)C(=O)N[C@@H](CCCCN)C(=O)N[C@@H](CCC(N)=O)C(=O)N[C@@H](CCC(=O)O)C(=O)N[C@@H](CCCNC(=N)N)C(=O)N[C@@H](CCCCN)C(=O)N[C@@H](CCCNC(=N)N)C(=O)N[C@@H](CCCCN)C(=O)N[C@@H](CCC(=O)O)C(=O)N[C@@H](CCCNC(=N)N)C(=O)N[C@@H](CCC(=O)O)C(=O)N[C@@H](CCC(N)=O)C(=O)N[C@@H](C)C(=O)N[C@@H](CCC(=O)O)C(=O)N[C@@H](CCCCN)C(=O)N[C@@H](C)C(=O)N[C@@H](C)C(=O)N[C@@H](CCCNC(=N)N)C(=O)N[C@H](C(=O)N[C@@H](CC(C)C)C(=O)N[C@@H](CCC(=O)O)C(=O)N[C@@H](CCCNC(=N)N)C(=O)N[C@H](C(N)=O)C(C)C)[C@@H](C)CC)C(=O)O` [compound 30] (H-IVLSLD[dV]PTKLK([γGlu-Palmitoyl])KKLLKQERKRKEREQAEKAARILERV-NH2; N-terminus assumed), the EC50 in assay [1] (setting [3]) turned out to be 0.16 nM. In addition, in assay [2], the concentration giving a half-maximal response (EC50) is more than 100 nM and the Emax was determined as 14.5%.

With `CC[C@H](C)[C@H](N)C(=O)N[C@H](C(=O)N[C@@H](CC(C)C)C(=O)N[C@@H](CO)C(=O)N[C@@H](CC(C)C)C(=O)N[C@@H](CC(=O)O)C(=O)N[C@H](C(=O)N1CCC[C@H]1C(=O)N[C@H](C(=O)N[C@@H](CCCCN)C(=O)N[C@@H](CC(C)C)C(=O)N[C@@H](CCCCNC(=O)COCCOCCNC(=O)COCCOCCNC(=O)CC[C@H](NC(=O)CCCCCCCCCCCCCCCCC(=O)O)C(=O)O)C(=O)N[C@@H](CCC(N)=O)C(=O)N[C@H](C(=O)N[C@@H](CC(C)C)C(=O)N[C@@H](CC(C)C)C(=O)N[C@@H](CCCCN)C(=O)N[C@@H](CCC(N)=O)C(=O)N[C@@H](CCC(=O)O)C(=O)N[C@@H](CCCNC(=N)N)C(=O)N[C@@H](CCC(N)=O)C(=O)N[C@@H](CCCCN)C(=O)N[C@@H](CCCCN)C(=O)N[C@@H](CCC(N)=O)C(=O)N[C@@H](CCCNC(=N)N)C(=O)N[C@@H](CCC(=O)O)C(=O)N[C@@H](CCCCN)C(=O)N[C@@H](C)C(=O)N[C@@H](CCCCN)C(=O)N[C@H](C(=O)N[C@@H](CC(N)=O)C(=O)NC(C)(C)C(=O)N[C@@H](CCC(N)=O)C(=O)N[C@H](C(=O)N[C@@H](CC(C)C)C(=O)N[C@@H](C)C(=O)N[C@@H](CCC(N)=O)C(=O)N[C@H](C(N)=O)C(C)C)[C@@H](C)CC)[C@@H](C)O)[C@@H](C)CC)[C@@H](C)CC)C(C)C)C(C)C` [compound 88] (H-IVLSLDVPIKLK([AEEA-AEEA-γGlu-C18 diacid])QILLKQERQKKQREKAKTN[Aib]QILAQV-NH2; N-terminus assumed), the EC50 in assay [1] (setting [3]) is 0.68 nM; in assay [1] (0.1% HSA, read-out: EC50 [nM], 0.1% HSA) it was 25.7 nM; in assay [2] it was more than 100 nM. The same compound had an Emax in assay [2] of 2.3%.
